According to patent US20200326333A1, “DIAGNOSIS AND TREATMENT OF AUTOIMMUNE DISEASES” (OP-T LLC, priority 2019, published 2020):

Assays:
[1] = test system: integrins from CD4lo cells (CD4loCD40+; Th40); test: KGYY15 immunoprecipitation with western blot, CD4lo cells; format: binding, mouse
Description: (§1) FIG. 10A, FIG. 10B, FIG. 10C-1, FIG. 10C-2, FIG. 10D, FIG. 10E, FIG. 10F, FIG. 10G, FIG. 10H-1, FIG. 10H-2, FIG. 10I, FIG. 10J-1, FIG. 10J-2, and FIG. 10J-3 provide blots, tables, graphs, charts, and plots related to additional biomarkers, receptors, and peptides that may bind thereto. The blots of FIG. 10A, FIG. 10B, FIGS. 10C-1, 10C-2 and FIG. 10D provide immunoprecipitation results of western blots. […] FIG. 10E provides a table of when KGYY15 eluates from mouse PBMR, MHCII+, CD4hi or CD4lo cells in protein sequencing, for integrins and proteins listed in FIG. 10E. FIG. 10F provides results of a western blot when 3 different CD40 antibodies were used in immunoprecipitations on cells that had been incubated with mKGYY15-biotin prior to lysis. FIG. 10H-1 and FIG. 10H-2, FIG. 10I, and FIG. 10J-1, FIG. 10J-2, and FIG. 10J-3 provide additional binding tests and studies that were done regarding peptides of KGYY-4, KGYY-6, and KGYY6-Val.

[2] = test system: integrins from CD4hi cells (CD4+CD40−); test: KGYY15 immunoprecipitation with western blot, CD4hi cells; format: binding, mouse; settings: αL more prominently from autoimmune NOD and αD from control Balb/c cells
Description: as §1

VLQWAKKGYYTMKSN [KGYY15, 15-mer CD154-derived peptide around the KGYY core]
β3 immunoprecipitation ([1]; cell population not stated): not β3 | integrins immunoprecipitated from CD4lo cells ([1]; more prominently from autoimmune NOD cells than from control Balb/c cells): immunoprecipitated primarily αM, αD and β2 | CD11a immunoprecipitation ([1]; several differentially glycosylated (presumably) bands): immunoprecipitated but only from NOD CD4lo cells | integrins immunoprecipitated from CD4hi cells [2]: immunoprecipitated primarily αL, αD and β2
